Assay results from patent US20180117110A1, “METHOD OF TREATING CANCER” (THE WALTER AND ELIZA HALL INSTITUTE OF MEDICAL RESEARCH, priority 2014, published 2018).

What was measured:
[1] = tested on: human AML patient samples; test: Response of human AML patient samples to Birinapant in vitro; format: cell-based
[2] = tested on: advanced solid tumours and lymphoma; settings: intravenous administration, Phase I; cited from earlier work
[3] = tested on: Bone Marrow Derived Macrophages (BMDM); test: TNFα production by ELISA of supernatants of BMDM treated with SMAC mimetic ± p38 inhibitors (kinase inhibitors screen); format: cell-based, mouse; settings: 500 nM SMAC mimetic ± 1 μM LY2228820 (FIG. 1B)
Protocol: FIG. 1: p38 inhibitors increase TNFα production and cell death induced by SMAC mimetics. A. Bone Marrow Derived Macrophages (BMDM) were pretreated ±1 μM of the indicated p38 inhibitors for 30 min then treated with 500 nM of SMAC mimetic Compound A (CompA) for 24 h. TNFα production was measured by ELISA of supernatants. B. BMDM were pretreated 500 nM of SMAC mimetic Compound A, GT13072 or birinapant ±1 μM of LY2228820. TNFα production was measured by ELISA of supernatants. N=3 biological repeats and error bars are SEM. C. BMDM were pretreated ± the indicated dose of MK2 inhibitor PF-3644022 and the p38 inhibitor LY2228820, VX-702, TAK-715 or VX-745 for 30 min then treated with 500 nM of SMAC mimetic Compound A. Cell viability was measured after 24 h of treatment using CellTiter-Glo® (CTG) reagent. N=3 biological repeats and error bars are SEM. BMDMs from C56/B16, p38α^LysMCre or Mk2^−/− were cultured for 6 days in DMEM+10% FBS (v/v)+20% L929 mouse fibroblasts (a source of macrophage colony stimulating factor), plated and assayed the following day. BMDMs cells were seeded and assayed in the presence of L929 conditioned medium. AML cells were cultured in IMDM +10% FBS (v/v)+2.5 ng/ml of IL-3. […] After treatment with SMAC mimetic with or without kinases inhibitors cell viability was measured by staining with propidium iodide (2 μg/mL) or by using CellTiter-Glo® (Promega). […]

[4] = tested on: Bone Marrow Derived Macrophages (BMDM); test: BMDM cell viability (CellTiter-Glo) after SMAC mimetic Compound A ± p38 or MK2 inhibitor; format: cell-based, mouse; settings: inhibitor 30 min then 500 nM Compound A, 24 h, dose dependent (FIG. 1C)
Protocol: FIG. 1: p38 inhibitors increase TNFα production and cell death induced by SMAC mimetics. A. Bone Marrow Derived Macrophages (BMDM) were pretreated ±1 μM of the indicated p38 inhibitors for 30 min then treated with 500 nM of SMAC mimetic Compound A (CompA) for 24 h. TNFα production was measured by ELISA of supernatants. B. BMDM were pretreated 500 nM of SMAC mimetic Compound A, GT13072 or birinapant ±1 μM of LY2228820. TNFα production was measured by ELISA of supernatants. N=3 biological repeats and error bars are SEM. C. BMDM were pretreated ± the indicated dose of MK2 inhibitor PF-3644022 and the p38 inhibitor LY2228820, VX-702, TAK-715 or VX-745 for 30 min then treated with 500 nM of SMAC mimetic Compound A. Cell viability was measured after 24 h of treatment using CellTiter-Glo® (CTG) reagent. N=3 biological repeats and error bars are SEM.
BMDMs from C56/B16, p38α^LysMCre or Mk2^−/− were cultured for 6 days in DMEM+10% FBS (v/v)+20% L929 mouse fibroblasts (a source of macrophage colony stimulating factor), plated and assayed the following day. BMDMs cells were seeded and assayed in the presence of L929 conditioned medium. AML cells were cultured in IMDM +10% FBS (v/v)+2.5 ng/ml of IL-3. NCI-H929 cells were cultured in RPMI+10% FBS (v/v). Cell suspension from breast ER+ patient derived tumours was cultured in mammosphere media. After treatment with SMAC mimetic with or without kinases inhibitors cell viability was measured by staining with propidium iodide (2 μg/mL) or by using CellTiter-Glo® (Promega).

C57BL6 mice = test: Tolerability of SMAC mimetic plus p38 inhibitor in non tumour-bearing mice; format: in vivo; settings: 5 mg/kg GT13072 + 15 mg/kg LY2228820 i.p. (FIG. 7C)
Protocol: FIG. 7: Mice tolerate administration of birinapant plus p38 inhibitor. A. Mononuclear cells isolated from healthy donor by Ficoll sedimentation were treated for 48 h with indicated drugs. CD34^+ cell death was measured by staining with PI and flow cytometry. For each donor sample, graphs show mean of at least n=2 technical replicates across n=2-5 independent experiments. B and C. C57BL/6 mice were intra-peritoneally injected with vehicle (captisol 6%) or birinapant (B) or GT13072 (C) or LY2228820 or combination of LY2228820 and SM at indicated concentration. Mice received 8 injections twice a week over 4 weeks. Mice were euthanised 2 weeks after the treatment stopped. Graphs show organs, body weights and blood cell populations with 6 mice/group (B), 4 mice/group (C). Error bars are SEM.
To assess the safety of SMAC mimetic plus p38 inhibitor C57BL6 mice were injected by intra-peritoneal route twice a week for 4 weeks with either vehicle (6% Captisol) or 15 mg/kg of LY222820 or 5 mg/kg birinapant ±15 mg/kg LY2228820, or 10 mg/kg birinapant±15 mg/kg LY2228820. Another cohort received either vehicle or 5 mg/kg of GT13072, or 15 mg/kg of LY222820 or combination.
200 μL of blood was collected from the retro-orbital plexus into tubes containing potassium ethylenediaminetetraacetic acid (Sarstedt) and analyzed in an Advia 2120 automated hematologic analyzer (Bayer).

[5] = tested on: low- and intermediate-1-risk Myelodysplastic syndromes; settings: oral administration, Phase I/II; cited from earlier work

SMILES: CC[C@H](NC(=O)[C@H](C)NC)C(=O)N1C[C@@H](O)C[C@H]1Cc1c(-c2[nH]c3cc(F)ccc3c2C[C@@H]2C[C@H](O)CN2C(=O)[C@H](CC)NC(=O)[C@H](C)NC)[nH]c2cc(F)ccc12 [Birinapant]
- response of human AML patient samples to single agent treatment [1]: some human AML patient samples did not respond
- anti-tumour activity in patients [2]: evidence of anti-tumour activity
- tolerability in patients [2]: well tolerated with no dose-limiting toxicities

SMILES: CC(C)(C)Cn1c(N)nc2ccc(-c3[nH]c(C(C)(C)C)nc3-c3ccc(F)cc3)nc21 [LY2228820]
- TNF production of three different smac-mimetics (CompA, GT13072 and birinapant) [3]: increased TNF production
- cell death induced by SMAC mimetics [4]: dramatically increased cell death
- effect of LY2228820 on populations of white blood cells (ADVIA analysis) (C57BL6 mice): nor affect the populations of white blood cells
- effect of LY2228820 on the splenomegaly induced by GT13072 (C57BL6 mice): did not even exacerbate the splenomegaly

SMILES: Cc1ccc(-c2ccc3c(ccc4sc5c(c43)NC[C@@H](C)NC5=O)n2)cn1 [PF-3644022]
- cell death induced by SMAC mimetics [4]: dramatically increased cell death

SMILES: CCc1nc(-c2cccc(C)c2)c(-c2ccnc(NC(=O)c3ccccc3)c2)s1 [TAK-715]
- cell death induced by SMAC mimetics [4]: dramatically increased cell death

SMILES: C[C@@H]1CN(Cc2ccc(F)cc2)[C@@H](C)CN1C(=O)c1cc2c(C(=O)C(=O)N(C)C)cn(C)c2cc1Cl [Talmapimod]
- complete remission [5]: only one patient achieved a complete remission
- tolerability in patients [5]: well tolerated

SMILES: NC(=O)c1ccc(N(C(N)=O)c2c(F)cccc2F)nc1-c1ccc(F)cc1F [VX-702]
- cell death induced by SMAC mimetics [4]: dramatically increased cell death

SMILES: O=c1ncn2nc(Sc3ccc(F)cc3F)ccc2c1-c1c(Cl)cccc1Cl [VX-745]
- cell death induced by SMAC mimetics [4]: dramatically increased cell death
